In patent US20230398130A1, “METHODS AND COMPOSITIONS FOR DIFFERENTIATING STEM CELLS” (Massachusetts Institute of Technology, priority 2020, published 2023):

Columns and labels:
[1] = tested on: human small intestinal organoids; experiment: Single-cell RNA-seq (Seq-Well S^3) of human small intestinal organoids with or without KPT-330; assay type: cell-based
Source text: To more completely explore the changes induced by KPT-330 in this human organoid model, and any donor associated effects, Applicants again utilized scRNA-seq via Seq-Well S^3. Applicants performed a comparison between untreated and KPT-330-treated organoids from each donor over a 6-day differentiation, with each sample consisting of single cells from >1,000 organoids. The resulting dataset consists of 2,484 cells. UMI, percent mitochondrial, and detected gene distributions are similar across samples, within acceptable quality bounds (genes >500, UMI<30,000, percent mitochondrial <35) (FIG. 60A).
For both, organoids at each sampling were harvested from 4-6 pooled Matrigel domes, totaling >1,000 organoids per sample. Excess Matrigel was removed per previously described washing protocol, and organoids were resuspended in TrypLE at 37 C for 15 min, with vigorous homogenization through a p200 pipette tip every 5 min. After 15 min, the suspension was passed through a 30 uM cell strainer twice, and counted under brightfield microscopy with trypan blue staining for viable single cells. For human organoid scRNA-seq, antibody-based cell hashing was performed, with all samples pooled following labeling and three washes in FACS buffer to remove excess antibody. Each sample was manually counted to equally weight in cell pools, and then the pool was split and processed as four identical samples.
Antibody hashed arrays were demultiplex with doublets and negative-staining cells removed following default settings of the Seurat function HTODemux.
Applicants performed integrated analysis on a combined dataset of 2,484 cells, with quality metrics for gene number, captured UMIs, and percent mitochondrial genes reported in Supp. […] Dimensional reduction and clustering was performed following normalization in Seurat V3 via SCTransform^71. Applicants performed variable gene identification and dimensionality reduction utilizing the first 18 principal components based on the elbow method to identify 7 clusters using Louvain clustering (Resolution=0.5). […]

ISC-enriched organoids = experiment: Secondary (validation) screen, 384-well 2.5-D, ENR+CD 6 days, n=8 wells, vs ENR+CD+DMSO control: ATP (CTG); assay type: cell-based, murine
lysozyme (LYZ) = experiment: Western blotting of lysozyme in 3D-cultured intestinal organoids; assay type: cell-based, murine; conditions: organoids cultured 6 days in ENR+CV, ENR+CD or ENR
Source text: Western blotting. ISC-enriched organoids cultured in 3D Matrigel with ENRCV media were passaged to 24-well plate in 3D Matrigel with ENRCV. At day zero, media were replaced to ENR or ENRCD with or without indicated compounds, and media were replaced every other day. At day six, cells were harvested from Matrigel by mechanical disruption and suspended in basal media. Cell pellets were lysed with Pierce© IP lysis buffer (ThermoFisher, 87787) containing Halt™ Protease Inhibitor Cocktail, EDTA-Free (ThermoFisher, 87785) after 3-minute centrifuge at 300×g at 4° C. Cell extracts were resolved by NuPAGE© SDS-PAGE Gel system (ThermoFisher) and electroblotted onto polyvinylidene difluoride membranes using Criterion™ Blotter (Biorad). The membranes were blocked with 2% Blotting-Grade Blocker (Biorad, 1706404) in TBS-T (50 mM Tris-HCl, 150 mM NaCl, and 0.1% Tween 20, pH 8.0) and then probed with appropriate antibodies. Detection was performed using ECL Select™ Western Blotting Detection Reagent (Amersham, 45-000-999) and ImageQuant LAS4000 (GE Healthcare).
Western blotting. Organoid-containing gel was homogenized in basal medium and centrifuged at 300 rcf for 3 min. Organoid pellet was lysed with ice-cold Pierce IP Lysis Buffer (Thermo Fisher Scientific, #87787) containing Halt Protease Inhibitor Cocktail, EDTA-Free (Thermo Fisher Scientific, #87785) and incubated on ice for 20 min. The lysate was centrifuged at 17,000 rcf for 10 min, and the supernatant was combined with NuPAGE LDS Sample Buffer (Thermo Fisher Scientific, NP0007). Protein concentration was determined by Pierce 660 nm Protein Assay (Thermo Fisher Scientific, #22660) and normalized to the lowest concentration among each sample set. […] Chemiluminescent signals were detected by LAS4000 (GE Healthcare) using Amersham ECL Select Western Blotting Detection Reagent (GE Healthcare, #45-000-999), and total protein signals were obtained by Odyssey Imaging System (LI-COR Biosciences) using REVERT Total Protein Stain Kit (LI-COR Biosciences, #926-11010).

O=C(/C=C\n1cnc(-c2cc(C(F)(F)F)cc(C(F)(F)F)c2)n1)NNc1cnccn1 [KPT-330]
LYZ expression (scRNA-seq) ([1]; 160 nM KPT-330, 6 days, all donors): increased LYZ expression
cell type composition (scRNA-seq) ([1]; 160 nM KPT-330, 6 days, pan-donor): decreases in cycling stem and progenitor populations, increases in quiescent progenitors and enterocytes
XPO1 expression (scRNA-seq) ([1]; following KPT-330 treatment): compensatory increase in XPO1 expression
Z.CTG (ISC-enriched organoids; Dose 0.02 uM): 1.135
repSSMD.CTG (ISC-enriched organoids; Dose 0.02 uM): 0.959
Z.CTG (ISC-enriched organoids; Dose 0.04 uM): 0.263
repSSMD.CTG (ISC-enriched organoids; Dose 0.04 uM): 0.179
Z.CTG (ISC-enriched organoids; dose 0.08 uM): 1.273
repSSMD.CTG (ISC-enriched organoids; dose 0.08 uM): 0.916
LYZ abundance per unit protein (Western blotting) (lysozyme (LYZ)): appreciably increase LYZ abundance
